Legend:
Experiment in all cases: Cell proliferation inhibition experiment, CellTiter-Glo (CTG) method
Assay type in all cases: cell-based
NCI-H1975 = conditions: for IC50: Homo sapiens, NCI-H1975, 72 h, NCI-H1975 cells, CTG, 3 days; for A-431/NCI-H1975 Selectivity: ratio of A-431 IC50 to NCI-H1975 IC50
Description: (§1) Cell Proliferation Inhibition Experiment
(§2) Compounds were tested in the selected cell lines, and solvent is set as control, nine concentrations were detected with three parallel wells for each concentration.
(§3) 2. Reagents and Materials • 1) fetal bovine serum FBS (GIBCO, Cat #10099-141) • 2) CellTiter-Glo® Luminescent Cell Viability Assay (Promega, Cat #G7572) • 3) 96-well plate with flat clear bottom, black wall plates (Corning®, Cat #3340)
(§4) The first day: Incubation and plant of cells • 1) Cells in logarithmic growth phase were harvested and counted by cell counter. Cell viability was detected by trypan blue exclusion assay to ensure that the viability of each cell line was above 90%. • 2) Cell concentration was adjusted by diluting complete culture medium, and 90 μL cell suspension was added to a 96-well plate (T0 plate and drug plate to be tested) to make the cell density reach the specified concentration. • 3) Cells in 96-well plate were incubated overnight at condition of 37° C., 5% CO2 and 95% humidity.
(§5) The second day: Reading T0 plate • 1) 10 μL culture medium was added to T0 plate. • 2) CTG reagent was melt, while the cell plate was balanced to room temperature for 30 minutes. • 3) The same volume of CTG solution was added to each well. • 4) The cell plate was vibrated for 2 minutes on an orbital shaker to lyze the cells. • 5) The cell plate was placed at room temperature for 10 minutes to stabilize the cold light signal. • 6) The cold light value was read with EnVision.
(§6) Drug Addition • 1) Drug dilution. The compounds to be tested were dissolved and packaged, then a gradient elution was performed to obtain a solution diluted 10 times. • 2) Drug addition. […] drug solution was added into each well of the 96-well plate, which was inoculated cells, three parallel wells were set for each cell concentration.
(§7) The third day: reading plate at the terminal • 1) CTG reagent was melt, while the cell plate was balanced to room temperature for 30 minutes. • 2) The same volume of CTG solution was added to each well. • 3) The cell plate was vibrated for 2 minutes on an orbital shaker to lyze the cells. • 4) The cell plate was placed at room temperature for 10 minutes to stabilize the cold light signal. • 5) The cold light value was read with EnVision
(§8) Data were analyzed using GraphPad Prism 5.0 software, and non-linear S curve regression was used for fitting the data to give a dose-effect curve, IC50 value was calculated accordingly. Cell Survival Rate (%)=(Lumdrugs−Lumcontrol)/(Lumcell−Lumcontrol)×100%.

PC-9 = conditions: Homo sapiens, PC-9, 72 h, PC-9 cells, 3 days
Description: as §1, §2, §3, §4, §5, §6, §7, §8

A-431 = conditions: Homo sapiens, A-431, 72 h, A-431 cells, 3 days
Description: as §1, §2, §3, §4, §5
Drug Addition • 1) Drug dilution. The compounds to be tested were dissolved and packaged, then a gradient elution was performed to obtain a solution diluted 10 times. • 2) Drug addition. […] drug solution was added into each well of the 96-well plate, which was inoculated cells, three parallel wells were set for each cell concentration. The highest concentration of the compounds to be tested on A-431 was 30 μM, nine concentrations was set with 3 times dilution; while the highest concentration on NCI-H1975 and PC-9 was 1.111 μM, 9 concentrations was set with 3 times dilution. • 3) Culture. Cells in 96-well plates in which drugs have been added were cultured at condition of 37° C., 5% CO2 and 95% humidity for 3 days, and then CTG assay was performed respectively.
as §7, §8

SMILES | IC50 (NCI-H1975) [nM] | A-431/NCI-H1975 Selectivity (NCI-H1975) | IC50 (PC-9) [nM] | IC50 (A-431) [nM]
C=CC(=O)Nc1cc(Nc2cc(-c3ccc4cnn(C)c4c3)ncn2)c(OC)cc1N1CCN(C)CC1 [compound 43] | 29.8 | 38.3 | 16.7 | 1140
C=CC(=O)Nc1cc(Nc2nccc(-c3ccc4cnn(C)c4c3)n2)c(OC)cc1N(C)CCN(C)C [compound 16] | 57 | 27.1 | 40.5 | 1550
C=CC(=O)Nc1cc(Nc2nccc(-c3ccc4c(cnn4C)c3)n2)c(OC)cc1N1CCN(CCOC)CC1 [compound 232] | 90.2 | 28.4 | 82.7 | 2560
C=CC(=O)Nc1cc(Nc2cc(-c3ccc4c(cnn4C)c3)ncn2)c(OCC)cc1N1C[C@@H](C)N(C)[C@@H](C)C1 [compound 90] | 26.5 | 66.2 | 15.5 | 1750
C=CC(=O)Nc1cc(Nc2cc(-c3ccc4ncsc4c3)ncn2)c(OC)cc1N(C)C1CCN(C)CC1 [compound 81] | 28.7 | 48.1 | 26.4 | 1380
C=CC(=O)Nc1cc(Nc2cc(-c3ccc4c(cnn4C)c3)ncn2)c(OC)cc1N1CCN(CC(F)(F)F)CC1 [compound 32] | 186 | 50.1 | 10.9 | 9330
C=CC(=O)Nc1cc(Nc2cc(-c3ccc4cnn(C)c4c3)ncn2)c(OC)cc1N1CCN(C2COC2)CC1 [compound 219] | 49.4 | 50.8 | 45.9 | 2510
C=CC(=O)Nc1cc(Nc2nccc(-c3ccc4c(cnn4C)c3)n2)c(OC)cc1N1CCC(N2CCN(C(C)C)CC2)CC1 [compound 234] | 80.1 | 30.7 | 32.7 | 2460
C=CC(=O)Nc1cc(Nc2cc(-c3ccc4cnn(C)c4c3)ncn2)c(OC)cc1N(C)C1CCN(C2CCOCC2)CC1 [compound 221] | 70.3 | 34.7 | 96 | 2440
C=CC(=O)Nc1cc(Nc2cc(-c3ccc4cnn(C)c4c3)ncn2)c(OC)cc1N1CCC(N2CCN(C3COC3)CC2)CC1 [compound 211] | 11.3 |  | 7.4 | 1040
C=CC(=O)Nc1cc(Nc2cc(-c3ccc4c(cnn4C)c3)ncn2)c(OC)cc1N1CC(N(C)C)C1 [compound 10] | 47.3 | 42.0 | 27.7 | 1990
C=CC(=O)Nc1cc(Nc2nccc(-c3ccc4c(cnn4C)c3)n2)c(OC(F)F)cc1NCCN(C)C [compound 249] | 8.6 | 109.7 | 61 | 943
C=CC(=O)Nc1cc(Nc2cc(-c3ccc4cnn(C)c4c3)ncn2)c(OC)cc1N1CCN(C)C[C@H]1C [compound 44] | 102 | 15.7 | 32.8 | 1600
C=CC(=O)Nc1cc(Nc2cc(-c3ccc4c(cnn4C)c3)ncn2)c(OCC)cc1N1CCN(CCN(C)C)CC1 [compound 117] | 11.3 | 60.1 | 11.2 | 679
C=CC(=O)Nc1cc(Nc2cc(-c3ccc4c(cnn4C)c3)ncn2)c(OC)cc1N1CCN(C(C)(C)CO)CC1 [compound 268] | 27.1 | 62.7 | 15.6 | 1700
C=CC(=O)Nc1cc(Nc2cc(-c3ccc4cnn(C)c4c3)ncn2)c(OC)cc1N1CCN(C)C(C)C1 (stereo not shown) [compound 41] | 20.4 | 30.0 | 10.6 | 612
C=CC(=O)Nc1cc(Nc2nccc(-c3ccc4c(cnn4CC)c3)n2)c(OCC)cc1N(C)CCN(C)C [compound 243] | 42.9 | 50.8 | 65.4 | 2180

SMILES | IC50 (NCI-H1975) [nM] | A-431/NCI-H1975 Selectivity (NCI-H1975) | IC50 (PC-9) [nM] | IC50 (A-431) [nM]
C=CC(=O)Nc1cc(Nc2cc(-c3ccc4c(cnn4C)c3)ncn2)c(OC(F)F)cc1N(C)CCNC(C)C [compound 272] | 5.6 | 176.3 | 13.9 | 987
C=CC(=O)Nc1cc(Nc2cc(-c3ccc4cnn(C)c4c3)ncn2)c(OC)cc1N1CCC(N2C[C@@H](C)N(C)[C@@H](C)C2)CC1 [compound 156] | 25.1 | 49.5 | 2.7 | 1240
C=CC(=O)Nc1cc(Nc2cc(-c3ccc4c(cnn4C)c3)ncn2)c(OC(F)F)cc1N(C)CCN(C)CC [compound 141] | 8.4 | 64.2 | 23.1 | 539
C=CC(=O)Nc1cc(Nc2cc(-c3ccc4c(cnn4C)c3)ncn2)c(OC)cc1NCCN(C)C [compound 58] | 8.8 |  | 6.9 | 1130
C=CC(=O)Nc1cc(Nc2cc(-c3ccc4cnn(C)c4c3)ncn2)c(OC(F)F)cc1N1CCN(CCO)CC1 [compound 275] | 136 | 24.3 | 43.2 | 3300
C=CC(=O)Nc1cc(Nc2nccc(-c3ccc4cnn(C)c4c3)n2)c(OC(F)F)cc1N(C)CCN(C)C [compound 177] | 19 | 77.3 | 23.5 | 1470
C=CC(=O)Nc1cc(Nc2cc(-c3ccc4cnn(C)c4c3)ncn2)c(OC(F)F)cc1N1C[C@@H](C)C(N)[C@@H](C)C1 (stereo partly shown) [compound 160] | 39.2 | 53.0 | 32.7 | 2080
C=CC(=O)Nc1cc(Nc2cc(-c3ccc4c(cnn4C)c3)ncn2)c(OC)cc1N1CCC(CCO)CC1 [compound 270] | 44.4 | 54.1 | 54.6 | 2400
C=CC(=O)Nc1cc(Nc2cc(-c3ccc4c(cnn4C)c3)ncn2)c(OC)cc1CN1CCN(C)CC1 [compound 294] | 71.3 | 64.2 | 44.9 | 4580
C=CC(=O)Nc1cc(Nc2cc(-c3ccc4c(cnn4C)c3)ncn2)c(OC)cc1N(C)C1CCN(CCOC)CC1 [compound 224] | 15.8 | 69.3 | 27.1 | 1090
C=CC(=O)Nc1cc(Nc2cc(-c3ccc4c(cnn4C)c3)ncn2)c(OC)cc1N1CCC2(CC1)COC2 [compound 107] | 16.5 | 78.2 | 17.8 | 1290
C=CC(=O)Nc1cc(Nc2nccc(-c3ccc4c(cnn4C)c3)n2)c(OC)cc1N(C)CCNC(C)(C)C [compound 246] | 89.7 | 25.6 | 67.2 | 2300
C=CC(=O)Nc1cc(Nc2cc(-c3ccc4cnn(C)c4c3)ncn2)c(OC)cc1N1CCC(N2CCOCC2)CC1 [compound 55] | 32.2 |  | 3.6 | 586
C=CC(=O)Nc1cc(Nc2cc(-c3ccc4c(cnn4C)c3)ncn2)c(OC(F)F)cc1N1CCC(N2CCCC2)CC1 [compound 150] | 5.3 | 102.5 | 19.3 | 543
C=CC(=O)Nc1cc(Nc2cc(-c3ccc4c(cnn4C)c3)ncn2)c(OC(F)F)cc1N1CCC(N(C)C)CC1 [compound 175] | 8.1 | 98.0 | 26 | 793
C=CC(=O)Nc1cc(Nc2cc(-c3ccc4ncsc4c3)ncn2)c(OC)cc1N(C)CCN1CCN(C)CC1 [compound 124] | 35.2 | 41.7 | 32.3 | 1470
C=CC(=O)Nc1cc(Nc2cc(-c3ccc4cnn(C)c4c3)ncn2)c(OC)cc1N1CCC(N2CCN(C(C)C)CC2)CC1 [compound 157] | 32.7 | 50.6 | 11 | 1650

From patent publication US11352352B2, “Aminopyrimidine compound, preparation method therefor and use thereof” (BEIJING ADAMADLE BIOTECHNOLOGY LIMITED LIABILITY COMPANY, priority 2017, dated 2022)
